ChEMBL document CHEMBL3867434, “Regiospecific Prenylation of Hydroxyxanthones by a Plant Flavonoid Prenyltransferase” (J Nat Prod, 2016)
The source made the active and inactive calls. No cut-off for these calls is given here.

What was measured:
[1] = Neuroprotective activity in human SK-N-SH cells assessed as inhibition of glutamate-induced injury by measuring increase in cell viability at 10 uM preincubated for 4 hrs followed by glutamate addition measured after 4 hrs by MTT assay; format: functional, cell-based
[2] = Neuroprotective activity in human SK-N-SH cells assessed as inhibition of glutamate-induced injury by measuring cell survival at 10 uM preincubated for 4 hrs followed by glutamate addition measured after 4 hrs by MTT assay relative to control; format: functional, cell-based

SMILES: O=c1c2cc(O)ccc2oc2cc(O)cc(O)c12
- Activity [1]: Active

SMILES: CC(C)=CCc1c(O)cc2oc3cc(O)cc(O)c3c(=O)c2c1O
- Activity [1]: Active

SMILES: Oc1ccc(/C=C/c2cc(O)cc(O)c2)cc1
- Survival [2]: 79.9%

SMILES: CC(C)=CCc1c(O)cc2oc3cc(O)c(CC=C(C)C)c(O)c3c(=O)c2c1O
- Activity [1]: Active

SMILES: CC(C)=CCc1c(O)cc2oc3ccc(O)cc3c(=O)c2c1O
- Activity [1]: Active
- Survival [2]: 82.9%

SMILES: O=c1c2c(O)cc(O)cc2oc2cc(O)cc(O)c12
- Activity [1]: Active
